The results in this text go back to PMC7023064, “Design, Synthesis, and Evaluation of Novel 2-Methoxyestradiol Derivatives as Apoptotic Inducers through an Intrinsic Apoptosis Pathway” (Biomolecules, 2020).

The test system of data set [1] is MCF-7 and MDA-MB-231 cell lines. Put plainly: MTT assay, summary over tested tumor cells. The format is cell-based, human. The conditions noted are these: for IC50: Homo sapiens, MCF-7 and MDA-MB-231, read-out: IC50, anti-proliferative activity against tested tumor cells. On the procedure: (§1) Human breast adenocarcinoma MCF-7 cell lines, human breast cancer MDA-MB-231 cell lines, and the normal human liver L-O2 cell lines were provided by Nanjing KeyGen Biotech Co. Ltd. (Nanjing, China). MCF-7 cells were cultured in a base medium (90% RPMI-1640 and 10% FBS) at 37 °C, 5% CO2 and a saturated humidity atmosphere. MDA-MB-231 cells were cultured in a base medium (90% […] and 10% FBS) at 37 °C, 5% CO2 and a saturated humidity atmosphere. L-O2 cells were cultured in a base medium (90% DMEM and 10% FBS) at 37 °C, 5% CO2 and a saturated humidity atmosphere.
(§2) The cytotoxicity of the tested compounds was determined using the 3-(4,5-dimethyl-2-thiazolyl)-2,5-diphenyl-2-H-tetrazolium bromide (MTT) assay. Cells were seeded in 96-well plates and incubated in a 5% CO2 incubator at 37 °C. When the cells adhered, compounds at different concentrations were added to every well. After incubation for another 72 h, MTT solution (5 mg/mL) was added into each well and cells were incubated for an additional 4 h. The viable cells were stained with MTT and scanned with an electrophotometer at 570 nm. Each concentration treatment was done in triplicate wells. The half maximal inhibitory concentration (IC50) values were estimated by fitting the inhibition data to a dose-dependent curve using a logistic derivative equation.
In general terms: Tetrazolium dyes change colour on reduction, which living cells bring about.

The test system of data set [2] is human breast cancer MDA-MB-231 cell lines. Put plainly: MTT cytotoxicity assay, MDA-MB-231. The conditions noted are these: Homo sapiens, MDA-MB-231, 72 h, mean ± SD of three experiments. The data set is classed as cell-based. On the procedure:
as §1, §2

Data set [3] has as its system human breast adenocarcinoma MCF-7 cell lines. Put plainly: MTT cytotoxicity assay, MCF-7. The data set is classed as cell-based. Conditions: Homo sapiens, MCF7. Here is the method:
as §1, §2

The test system of data set [4] is normal human liver L-O2 cell lines. The data set can be described thus: MTT cytotoxicity assay, L-O2. The data set is classed as cell-based. The conditions noted are these: Homo sapiens, L02, 72 h, mean ± SD of three experiments, No = No inhibition detected. Here is the method:
as §1, §2

The mark [5] stands for this setting: MTT, 72 h, mean ± SD of three experiments, read-out: IC50 MCF-7.
The mark [6] stands for this setting: Table 2, mean ± SD of three experiments, read-out: IC50 for MCF-7.
Setting [7] is: pIC50 = −log(IC50), read-out: pIC50 for MCF-7 (converted).

Where two headings read alike, the source gives them in different places.

What is called melting point is the temperature of the solid-liquid transition.

`COc1cc2c(cc1OCCCCCCn1cc(C)c(=O)n(CCCCCCOc3cc4c(cc3OC)[C@H]3CC[C@]5(C)[C@@H](O)CC[C@H]5[C@@H]3CC4)c1=O)CC[C@@H]1[C@@H]2CC[C@]2(C)[C@@H](O)CC[C@@H]12` [Compound 21b, 1,3-bis-{6-[2-Methoxy-17β-Hydroxy-Estra-1,3,5(10)-Triene-3-yl-oxy]-Hexyl}-5-Methyl-Uracil] returned a melting point of 79 to 81 °C. For the same molecule, in data set [1], the IC50 was around 25 µM. The “selectivity towards cancerous cell lines vs healthy cell line” value in data set [1] (MCF-7 and MDA-MB-231 vs L-O2) is “about 4 fold”. The same molecule came in with an IC50 in data set [2] of 23.8 ± 1.45 µM. Further, the IC50 in data set [3] (setting [5]) was 28.4 ± 1.76 µM. In addition, the IC50 in data set [3] (setting [6]) was 28.4 ± 1.76 µM. In addition, the IC50 in data set [3] (setting [7]) is 28.2 µM. Further, the IC50 in data set [4] was above 100 µM.
For `COc1cc2c(cc1OCCCCCCn1c(=O)ccn([C@@H]3O[C@H](CO)[C@@H](O)[C@H]3O)c1=O)CC[C@@H]1[C@@H]2CC[C@]2(C)[C@@H](O)CC[C@@H]12` [Compound 18, 3-[6-(1-β-D-Ribofuranosyluracil-3-yl)-Hexyloxy]-2-Methoxy-Estra-1,3,5(10)-Triene-17β-ol], the melting point fell in the range of 99 to 100 °C. Moreover, the IC50 in data set [1] lay within 3.89 to 16.7 µM. In addition, in data set [2], the IC50 was determined as 3.89 ± 0.36 µM. Besides, the IC50 in data set [3] (setting [5]) is 6.21 ± 0.37 µM. Besides, the IC50 in data set [3] (setting [6]) stood at 6.21 ± 0.37 µM. Moreover, in data set [3] (setting [7]), the IC50 was 6.17 µM. Besides, in data set [4], the IC50 was 21.3 ± 0.66 µM.
